Measurements published in patent US20190025313A1, “TREATMENT OF TUMORS INCORPORATING MUTANT ISOCITRATE DEHYDROGENASE” (Agios Pharmaceuticals, Inc., priority 2015, published 2019).

Tests used:
Format in all cases: cell-based
mIDH2 TF1 cells = test: Metabolic activity (ATP fold-change) and rescue in mIDH2 TF1 cells; conditions: for drop in metabolic activity / rescue of brequinar-induced drop in metabolic activity: Brequinar 2 μM; for drop in metabolic activity: ATP fold-change day 3 over day 0
Method: (§1) TF1-pLVX (wildtype) cells were pLVX plated at 20 k/ml, 90 μl/well while TF1/R132H27 (mIDH1) and TF1/R140Q11 (mIDH2) cells were plated at 80 k/ml, 90 μl/well in RPMI, 10% FBS, G418 and GM-CSF. Test compound was added on day 0 and CellTiter-Glo, assay (Promega) was performed on day 3/4 and 7. Medium was not changed during 7-day culture.
(§2) Data was expressed as ATP fold-change: day 3 over day 0.

mIDH1 TF1 cells = test: Metabolic activity (ATP fold-change) and rescue in mIDH1 TF1 cells; conditions: for drop in metabolic activity / rescue of brequinar-induced drop in metabolic activity: Brequinar 2 μM; for drop in metabolic activity: ATP fold-change day 3 over day 0
Method: as §1, §2

[1] = system: TF1/R132H27 (mIDH1) cells; test: Proliferation assay (CellTiter-Glo) of mutant IDH1 TF1 cells; conditions: Homo sapiens, TF-1, mutant IDH1 (R132H) TF1 cells, read-out: IC50, inhibition of proliferation
Method: (§3) Proliferation Assay of Wild Type and Mutant IDH Cell Lines
as §1

TF1 cells [2] = test: Proliferation assay, cell line not specified (IC90 at day 7); conditions: Homo sapiens, TF-1, 168 h, cell line not stated
Method: as §1, §2

[3] = system: TF1/R140Q11 (mIDH2) cells; test: Proliferation assay (CellTiter-Glo) of mutant IDH2 TF1 cells; conditions: Homo sapiens, TF-1, mutant IDH2 (R140Q) TF1 cells, read-out: IC50, inhibition of proliferation
Method: as §3, §1

TF1 cells [4] = test: Metabolic activity (ATP fold-change) in methotrexate treated TF1 cells; conditions: FIG. 3
Source text: Metabolic activity was rescued in mIDH1 and mIDH2 TF1 cells with 3-day folinic acid supplement.

[5] = 3-day folinic acid supplement, methotrexate treated, FIG. 3
[6] = uridine 8 μM, 3-day supplement, FIG. 2A

**Q.** What does the source list for Nc1nc(=O)c2c([nH]1)NCC(CNc1ccc(C(=O)N[C@@H](CCC(=O)O)C(=O)O)cc1)N2C=O (mixture of isomers) [folinic acid]?
**A.** rescue of methotrexate-induced drop in metabolic activity (mIDH2 TF1 cells; [5]): rescued; rescue of methotrexate-induced drop in metabolic activity (mIDH1 TF1 cells; [5]): rescued

**Q.** For Cc1c(-c2ccc(-c3ccccc3F)cc2)nc2ccc(F)cc2c1C(=O)O [Brequinar, brequinar], which IC50 [1] is on record?
**A.** The IC50 was 1.3 µM.

**Q.** What about the IC90 (TF1 cells [2]) of the same compound?
**A.** The IC90 was roughly 2 µM.

**Q.** What about the “drop in metabolic activity” value (mIDH2 TF1 cells; FIG. 2A) of the same compound?
**A.** Its value is 52%.

**Q.** What about the “drop in metabolic activity” value (mIDH2 TF1 cells; FIG. 2B) of the same compound?
**A.** Its value is 47%.

**Q.** What about the “drop in metabolic activity” value (mIDH1 TF1 cells; FIG. 2A) of the same compound?
**A.** The value was 73%.

**Q.** And the “drop in metabolic activity” value (mIDH1 TF1 cells; FIG. 2B)?
**A.** Its value is 77%.

**Q.** And the IC50 [3]?
**A.** Its IC50 is 1.6 µM.

**Q.** How did the “metabolic activity expressed as ATP fold-change (day 3 over day 0)” value (TF1 cells [4]) turn out when CN(Cc1cnc2nc(N)nc(N)c2n1)c1ccc(C(=O)N[C@@H](CCC(=O)O)C(=O)O)cc1 [methotrexate] was run?
**A.** Its value is “drop in metabolic activity”.

**Q.** O=c1ccn([C@@H]2O[C@H](CO)[C@@H](O)[C@H]2O)c(=O)[nH]1 [uridine] was tested. Which “rescue of brequinar-induced drop in metabolic activity” value (“rescue of brequinar-induced drop” below) (mIDH2 TF1 cells; [6]) did it give?
**A.** Its value is “rescued”.

**Q.** What about the “rescue of brequinar-induced drop” value (mIDH2 TF1 cells; uridine 1,000 μM, FIG. 2B) of the same compound?
**A.** Its value is “rescued”.

**Q.** What about the “rescue of brequinar-induced drop” value (mIDH1 TF1 cells; [6]) of the same compound?
**A.** The value was “rescued”.

**Q.** And the “rescue of brequinar-induced drop” value (mIDH1 TF1 cells; uridine 1,000 μM, FIG. 2B)?
**A.** The value was “rescued”.
